Laboratory results reported in US12595253B2, “Benzamides of pyrazolylamino-pyrimidinyl derivatives, and compositions and methods thereof” (LYNK PHARMACEUTICALS CO. LTD., priority 2019, dated 2026).

Key:
[1] = Liver microsomes study, Phase I stability (HLM); type: in vitro ADME, human; conditions: pH 7.4; human liver microsomes 0.5 mg/mL, 1 μM test article; read-out: HLM Clint
Method in brief: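 Rat or human liver microsomes were incubated with test article, and reactions started with an NADPH regenerating system. Samples at 0, 10, 30 and 90 minutes were quenched with cold acetonitrile and analyzed by LC/MS/MS. T½ and CLint came from the ln(% remaining) versus time slope, scaled by protein concentration.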

CYP2C9 = biological target: T1, CYP2C9 (Homo sapiens, UniProt P11712); experiment: CYPs inhibition in pooled human liver microsomes, probe substrate Diclofenac; type: in vitro ADME
T1 construct: 0.2 mg/mL human liver microsomes was pre-incubated in 180 μL reaction mixture; from tissue; host or cells: pooled human liver microsomes
T1 sequence (P11712 whole entry): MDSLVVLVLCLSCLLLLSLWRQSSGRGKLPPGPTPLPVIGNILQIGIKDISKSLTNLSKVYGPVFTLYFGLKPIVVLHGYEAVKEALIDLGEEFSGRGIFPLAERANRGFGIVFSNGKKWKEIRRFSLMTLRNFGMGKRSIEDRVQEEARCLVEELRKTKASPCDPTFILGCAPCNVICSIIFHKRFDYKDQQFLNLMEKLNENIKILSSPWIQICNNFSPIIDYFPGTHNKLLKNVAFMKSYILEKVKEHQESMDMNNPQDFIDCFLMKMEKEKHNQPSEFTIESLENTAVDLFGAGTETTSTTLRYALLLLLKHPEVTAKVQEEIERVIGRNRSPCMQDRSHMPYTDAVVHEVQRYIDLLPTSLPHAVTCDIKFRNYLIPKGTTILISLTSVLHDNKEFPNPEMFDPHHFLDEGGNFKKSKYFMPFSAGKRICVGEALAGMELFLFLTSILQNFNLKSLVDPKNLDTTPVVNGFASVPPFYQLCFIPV
Method in brief: (§1)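 Test articles pre-incubated 10 min at 37 °C with a probe-substrate cocktail in pooled human liver microsomes. Reaction then started with NADPH and run 10 min. Metabolites quantified by LC-MS/MS; IC50 from 3-parameter logistic fit of % control activity.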

CYP2D6 = biological target: T2, CYP2D6 (Homo sapiens, UniProt P10635); experiment: CYPs inhibition in pooled human liver microsomes, probe substrate Dextromethorphan; type: in vitro ADME
T2 construct: 0.2 mg/mL human liver microsomes was pre-incubated in 180 μL reaction mixture; from tissue; host or cells: pooled human liver microsomes
T2 sequence (P10635 whole entry): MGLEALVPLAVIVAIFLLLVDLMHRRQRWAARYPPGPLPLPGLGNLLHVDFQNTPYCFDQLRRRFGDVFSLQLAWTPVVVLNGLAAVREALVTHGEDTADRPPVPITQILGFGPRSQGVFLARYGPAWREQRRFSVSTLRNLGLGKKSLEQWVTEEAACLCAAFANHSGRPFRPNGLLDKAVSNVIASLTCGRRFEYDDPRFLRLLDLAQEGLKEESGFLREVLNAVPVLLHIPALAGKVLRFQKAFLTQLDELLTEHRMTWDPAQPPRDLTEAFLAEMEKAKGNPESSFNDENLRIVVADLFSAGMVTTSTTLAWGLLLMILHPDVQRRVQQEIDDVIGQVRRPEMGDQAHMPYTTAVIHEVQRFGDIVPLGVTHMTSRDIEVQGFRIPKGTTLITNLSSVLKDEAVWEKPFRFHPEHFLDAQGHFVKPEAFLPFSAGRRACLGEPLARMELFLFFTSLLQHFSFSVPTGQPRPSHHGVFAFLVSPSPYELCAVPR
Method in brief: as §1

CYP2C19 = biological target: T3, CYP2C19 (Homo sapiens, UniProt P33261); experiment: CYPs inhibition in pooled human liver microsomes, probe substrate S-mephenytoin; type: in vitro ADME
T3 construct: 0.2 mg/mL human liver microsomes was pre-incubated in 180 μL reaction mixture; from tissue; host or cells: pooled human liver microsomes
T3 sequence (P33261 whole entry): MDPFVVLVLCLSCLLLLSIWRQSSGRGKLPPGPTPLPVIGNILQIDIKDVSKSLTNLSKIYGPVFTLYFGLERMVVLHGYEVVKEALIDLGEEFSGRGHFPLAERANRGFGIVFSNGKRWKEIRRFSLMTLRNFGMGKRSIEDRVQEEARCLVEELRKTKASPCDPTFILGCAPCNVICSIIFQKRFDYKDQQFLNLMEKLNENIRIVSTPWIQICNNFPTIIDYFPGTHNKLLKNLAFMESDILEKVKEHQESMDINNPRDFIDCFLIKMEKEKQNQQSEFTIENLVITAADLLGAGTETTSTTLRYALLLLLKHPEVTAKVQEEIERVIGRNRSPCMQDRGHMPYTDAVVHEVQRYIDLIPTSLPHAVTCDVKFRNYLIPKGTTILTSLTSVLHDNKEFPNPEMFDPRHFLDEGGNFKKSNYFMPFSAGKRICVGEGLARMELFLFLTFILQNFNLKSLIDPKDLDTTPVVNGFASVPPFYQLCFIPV
Method in brief: as §1

CYP1A2 = biological target: T4, CYP1A2 (Homo sapiens, UniProt P05177); experiment: CYPs inhibition in pooled human liver microsomes, probe substrate Phenacetin; type: in vitro ADME
T4 construct: 0.2 mg/mL human liver microsomes was pre-incubated in 180 μL reaction mixture; from tissue; host or cells: pooled human liver microsomes
T4 sequence (P05177 1-516): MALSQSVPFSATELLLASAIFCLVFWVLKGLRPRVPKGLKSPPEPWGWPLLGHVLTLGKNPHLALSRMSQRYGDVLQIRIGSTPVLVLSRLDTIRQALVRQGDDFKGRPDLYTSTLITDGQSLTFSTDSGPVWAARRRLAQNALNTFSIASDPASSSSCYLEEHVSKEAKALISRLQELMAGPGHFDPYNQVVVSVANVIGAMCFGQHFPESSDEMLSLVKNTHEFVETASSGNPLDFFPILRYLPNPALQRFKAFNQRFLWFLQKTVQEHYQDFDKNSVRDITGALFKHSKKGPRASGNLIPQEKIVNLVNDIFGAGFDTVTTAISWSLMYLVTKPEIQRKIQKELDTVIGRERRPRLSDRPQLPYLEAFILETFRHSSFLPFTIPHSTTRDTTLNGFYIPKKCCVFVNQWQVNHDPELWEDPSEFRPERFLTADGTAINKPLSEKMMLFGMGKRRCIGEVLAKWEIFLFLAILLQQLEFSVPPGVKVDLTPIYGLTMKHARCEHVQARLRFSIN
Method in brief: as §1

microsomal CLint at 1 μM [1] [µL/min/mg] | IC50 (CYP2C9) [µM] | IC50 (CYP2D6) [µM] | IC50 (CYP2C19) [µM] | IC50 (CYP1A2) [µM] | SMILES
 | > 50 | > 50 | > 50 | > 50 | Cc1cnc(Nc2cnn(C3CCN(C(=O)CO)CC3)c2)nc1-c1ccc(C(=O)N[C@@H](C)C#N)cc1 [Example 119, (S)—N-(1-cyanoethyl)-4-(2-((1-(1-(2-hydroxyacetyl)piperidin-4-yl)-1H-pyrazol-4-yl)amino)-5-methylpyrimidin-4-yl)benzamide]
21.9 |  |  |  |  | C[C@@H](C#N)NC(=O)c1ccc(-c2nc(Nc3cnn(C)c3)ncc2Cl)cc1 [Example 125, (S)-4-(5-chloro-2-((1-methyl-1H-pyrazol-4-yl)amino)pyrimidin-4-yl)-N-(1-cyanoethyl)benzamide]
203 | 14.1 | 35.4 | 6.36 | > 50 | Cc1cnc(Nc2cnn(C3CC(C)(C)OC(C)(C)C3)c2)nc1-c1ccc(C(=O)NCC#N)cc1 [Example 113, N-(cyanomethyl)-4-(5-methyl-2-((1-(2,2,6,6-tetramethyltetrahydro-2H-pyran-4-yl)-1H-pyrazol-4-yl)amino)pyrimidin-4-yl)benzamide]
 | 19 | > 50 | > 50 | > 50 | C[C@@H](C#N)NC(=O)c1ccc(-c2nc(Nc3cnn(C4CCNCC4)c3)ncc2Cl)cc1 [Example 165, (S)-4-(5-chloro-2-((1-(piperidin-4-yl)-1H-pyrazol-4-yl)amino)pyrimidin-4-yl)-N-(1-cyanoethyl)benzamide]
11.4 | > 50 | > 50 | > 50 | > 50 | CC[C@@H](C#N)NC(=O)c1ccc(-c2nc(Nc3cnn(C4CCN(C)CC4)c3)ncc2C)cc1 [Example 184, (S)—N-(1-Cyanopropyl)-4-(5-methyl-2-((1-(1-methylpiperidin-4-yl)-1H-pyrazol-4-yl)amino)pyrimidin-4-yl)benzamide]
12 | 3.18 | 42 | > 50 | > 50 | CC[C@@H](C#N)NC(=O)c1ccc(-c2nc(Nc3cnn(C4CCNCC4)c3)ncc2Cl)cc1 [Example 183, (S)-4-(5-chloro-2-((1-(piperidin-4-yl)-1H-pyrazol-4-yl)amino)pyrimidin-4-yl)-N-(1-cyanopropyl)benzamide]

Second part, the compound before the results:

SMILES | microsomal CLint at 1 μM [1] [µL/min/mg] | IC50 (CYP2C9) [µM] | IC50 (CYP2D6) [µM] | IC50 (CYP2C19) [µM] | IC50 (CYP1A2) [µM]
C[C@@H](C#N)NC(=O)c1ccc(-c2nc(Nc3cnn(C4CCN(C)CC4)c3)ncc2Cl)cc1 [Example 43, (S)-4-(5-Chloro-2-((1-(1-methylpiperidin-4-yl)-1H-pyrazol-4-yl)amino)pyrimidin-4-yl)-N-(1-cyanoethyl)benzamide] | 15 | > 50 | > 50 | > 50 | > 50
Cc1cnc(Nc2cnn(CC#N)c2)nc1-c1ccc(C(=O)NCC#N)cc1 [Example 4, N-(Cyanomethyl)-4-(2-((1-(cyanomethyl)-1H-pyrazol-4-yl)amino)-5-methylpyrimidin-4-yl)benzamide] | 1.22 | > 50 | > 50 | > 50 | 45.8
Cn1cc(Nc2ncc(Cl)c(-c3ccc(C(=O)NCC#N)cc3)n2)cn1 [Example 34, 4-(5-Chloro-2-((1-methyl-1H-pyrazol-4-yl)amino)pyrimidin-4-yl)-N-(cyanomethyl)benzamide] | 12.3 |  |  |  | 
N#CCNC(=O)c1ccc(-c2nc(Nc3cnn(C4CC4)c3)ncc2Cl)cc1 [Example 95, 4-(5-Chloro-2-((1-cyclopropyl-1H-pyrazol-4-yl)amino)pyrimidin-4-yl)-N-(cyanomethyl)benzamide] | 8.84 |  |  |  | 
